Results on two molecules are retold here after patent publication US20230368862A1, “BINDING SITE IN TYPE 2 RYANODINE RECEPTOR” (The Trustees of Columbia University in the City of New York, priority 2021, published 2023).

Experiment [1] deals with T1, PKA phosphorylated RyR2-R2474S (Homo sapiens, UniProt Q92736, R2474S).
T1 construct: Each fragment was subcloned into a full-length human RYR2 construct in pCMV5 vector; made in house; host or cells: HEK293 (RyR2-R2474S, transient); E. coli BL21(DE3) (GST-calstabin-2)
T1 sequence (Q92736 whole entry R2474S, the tested form may be a part): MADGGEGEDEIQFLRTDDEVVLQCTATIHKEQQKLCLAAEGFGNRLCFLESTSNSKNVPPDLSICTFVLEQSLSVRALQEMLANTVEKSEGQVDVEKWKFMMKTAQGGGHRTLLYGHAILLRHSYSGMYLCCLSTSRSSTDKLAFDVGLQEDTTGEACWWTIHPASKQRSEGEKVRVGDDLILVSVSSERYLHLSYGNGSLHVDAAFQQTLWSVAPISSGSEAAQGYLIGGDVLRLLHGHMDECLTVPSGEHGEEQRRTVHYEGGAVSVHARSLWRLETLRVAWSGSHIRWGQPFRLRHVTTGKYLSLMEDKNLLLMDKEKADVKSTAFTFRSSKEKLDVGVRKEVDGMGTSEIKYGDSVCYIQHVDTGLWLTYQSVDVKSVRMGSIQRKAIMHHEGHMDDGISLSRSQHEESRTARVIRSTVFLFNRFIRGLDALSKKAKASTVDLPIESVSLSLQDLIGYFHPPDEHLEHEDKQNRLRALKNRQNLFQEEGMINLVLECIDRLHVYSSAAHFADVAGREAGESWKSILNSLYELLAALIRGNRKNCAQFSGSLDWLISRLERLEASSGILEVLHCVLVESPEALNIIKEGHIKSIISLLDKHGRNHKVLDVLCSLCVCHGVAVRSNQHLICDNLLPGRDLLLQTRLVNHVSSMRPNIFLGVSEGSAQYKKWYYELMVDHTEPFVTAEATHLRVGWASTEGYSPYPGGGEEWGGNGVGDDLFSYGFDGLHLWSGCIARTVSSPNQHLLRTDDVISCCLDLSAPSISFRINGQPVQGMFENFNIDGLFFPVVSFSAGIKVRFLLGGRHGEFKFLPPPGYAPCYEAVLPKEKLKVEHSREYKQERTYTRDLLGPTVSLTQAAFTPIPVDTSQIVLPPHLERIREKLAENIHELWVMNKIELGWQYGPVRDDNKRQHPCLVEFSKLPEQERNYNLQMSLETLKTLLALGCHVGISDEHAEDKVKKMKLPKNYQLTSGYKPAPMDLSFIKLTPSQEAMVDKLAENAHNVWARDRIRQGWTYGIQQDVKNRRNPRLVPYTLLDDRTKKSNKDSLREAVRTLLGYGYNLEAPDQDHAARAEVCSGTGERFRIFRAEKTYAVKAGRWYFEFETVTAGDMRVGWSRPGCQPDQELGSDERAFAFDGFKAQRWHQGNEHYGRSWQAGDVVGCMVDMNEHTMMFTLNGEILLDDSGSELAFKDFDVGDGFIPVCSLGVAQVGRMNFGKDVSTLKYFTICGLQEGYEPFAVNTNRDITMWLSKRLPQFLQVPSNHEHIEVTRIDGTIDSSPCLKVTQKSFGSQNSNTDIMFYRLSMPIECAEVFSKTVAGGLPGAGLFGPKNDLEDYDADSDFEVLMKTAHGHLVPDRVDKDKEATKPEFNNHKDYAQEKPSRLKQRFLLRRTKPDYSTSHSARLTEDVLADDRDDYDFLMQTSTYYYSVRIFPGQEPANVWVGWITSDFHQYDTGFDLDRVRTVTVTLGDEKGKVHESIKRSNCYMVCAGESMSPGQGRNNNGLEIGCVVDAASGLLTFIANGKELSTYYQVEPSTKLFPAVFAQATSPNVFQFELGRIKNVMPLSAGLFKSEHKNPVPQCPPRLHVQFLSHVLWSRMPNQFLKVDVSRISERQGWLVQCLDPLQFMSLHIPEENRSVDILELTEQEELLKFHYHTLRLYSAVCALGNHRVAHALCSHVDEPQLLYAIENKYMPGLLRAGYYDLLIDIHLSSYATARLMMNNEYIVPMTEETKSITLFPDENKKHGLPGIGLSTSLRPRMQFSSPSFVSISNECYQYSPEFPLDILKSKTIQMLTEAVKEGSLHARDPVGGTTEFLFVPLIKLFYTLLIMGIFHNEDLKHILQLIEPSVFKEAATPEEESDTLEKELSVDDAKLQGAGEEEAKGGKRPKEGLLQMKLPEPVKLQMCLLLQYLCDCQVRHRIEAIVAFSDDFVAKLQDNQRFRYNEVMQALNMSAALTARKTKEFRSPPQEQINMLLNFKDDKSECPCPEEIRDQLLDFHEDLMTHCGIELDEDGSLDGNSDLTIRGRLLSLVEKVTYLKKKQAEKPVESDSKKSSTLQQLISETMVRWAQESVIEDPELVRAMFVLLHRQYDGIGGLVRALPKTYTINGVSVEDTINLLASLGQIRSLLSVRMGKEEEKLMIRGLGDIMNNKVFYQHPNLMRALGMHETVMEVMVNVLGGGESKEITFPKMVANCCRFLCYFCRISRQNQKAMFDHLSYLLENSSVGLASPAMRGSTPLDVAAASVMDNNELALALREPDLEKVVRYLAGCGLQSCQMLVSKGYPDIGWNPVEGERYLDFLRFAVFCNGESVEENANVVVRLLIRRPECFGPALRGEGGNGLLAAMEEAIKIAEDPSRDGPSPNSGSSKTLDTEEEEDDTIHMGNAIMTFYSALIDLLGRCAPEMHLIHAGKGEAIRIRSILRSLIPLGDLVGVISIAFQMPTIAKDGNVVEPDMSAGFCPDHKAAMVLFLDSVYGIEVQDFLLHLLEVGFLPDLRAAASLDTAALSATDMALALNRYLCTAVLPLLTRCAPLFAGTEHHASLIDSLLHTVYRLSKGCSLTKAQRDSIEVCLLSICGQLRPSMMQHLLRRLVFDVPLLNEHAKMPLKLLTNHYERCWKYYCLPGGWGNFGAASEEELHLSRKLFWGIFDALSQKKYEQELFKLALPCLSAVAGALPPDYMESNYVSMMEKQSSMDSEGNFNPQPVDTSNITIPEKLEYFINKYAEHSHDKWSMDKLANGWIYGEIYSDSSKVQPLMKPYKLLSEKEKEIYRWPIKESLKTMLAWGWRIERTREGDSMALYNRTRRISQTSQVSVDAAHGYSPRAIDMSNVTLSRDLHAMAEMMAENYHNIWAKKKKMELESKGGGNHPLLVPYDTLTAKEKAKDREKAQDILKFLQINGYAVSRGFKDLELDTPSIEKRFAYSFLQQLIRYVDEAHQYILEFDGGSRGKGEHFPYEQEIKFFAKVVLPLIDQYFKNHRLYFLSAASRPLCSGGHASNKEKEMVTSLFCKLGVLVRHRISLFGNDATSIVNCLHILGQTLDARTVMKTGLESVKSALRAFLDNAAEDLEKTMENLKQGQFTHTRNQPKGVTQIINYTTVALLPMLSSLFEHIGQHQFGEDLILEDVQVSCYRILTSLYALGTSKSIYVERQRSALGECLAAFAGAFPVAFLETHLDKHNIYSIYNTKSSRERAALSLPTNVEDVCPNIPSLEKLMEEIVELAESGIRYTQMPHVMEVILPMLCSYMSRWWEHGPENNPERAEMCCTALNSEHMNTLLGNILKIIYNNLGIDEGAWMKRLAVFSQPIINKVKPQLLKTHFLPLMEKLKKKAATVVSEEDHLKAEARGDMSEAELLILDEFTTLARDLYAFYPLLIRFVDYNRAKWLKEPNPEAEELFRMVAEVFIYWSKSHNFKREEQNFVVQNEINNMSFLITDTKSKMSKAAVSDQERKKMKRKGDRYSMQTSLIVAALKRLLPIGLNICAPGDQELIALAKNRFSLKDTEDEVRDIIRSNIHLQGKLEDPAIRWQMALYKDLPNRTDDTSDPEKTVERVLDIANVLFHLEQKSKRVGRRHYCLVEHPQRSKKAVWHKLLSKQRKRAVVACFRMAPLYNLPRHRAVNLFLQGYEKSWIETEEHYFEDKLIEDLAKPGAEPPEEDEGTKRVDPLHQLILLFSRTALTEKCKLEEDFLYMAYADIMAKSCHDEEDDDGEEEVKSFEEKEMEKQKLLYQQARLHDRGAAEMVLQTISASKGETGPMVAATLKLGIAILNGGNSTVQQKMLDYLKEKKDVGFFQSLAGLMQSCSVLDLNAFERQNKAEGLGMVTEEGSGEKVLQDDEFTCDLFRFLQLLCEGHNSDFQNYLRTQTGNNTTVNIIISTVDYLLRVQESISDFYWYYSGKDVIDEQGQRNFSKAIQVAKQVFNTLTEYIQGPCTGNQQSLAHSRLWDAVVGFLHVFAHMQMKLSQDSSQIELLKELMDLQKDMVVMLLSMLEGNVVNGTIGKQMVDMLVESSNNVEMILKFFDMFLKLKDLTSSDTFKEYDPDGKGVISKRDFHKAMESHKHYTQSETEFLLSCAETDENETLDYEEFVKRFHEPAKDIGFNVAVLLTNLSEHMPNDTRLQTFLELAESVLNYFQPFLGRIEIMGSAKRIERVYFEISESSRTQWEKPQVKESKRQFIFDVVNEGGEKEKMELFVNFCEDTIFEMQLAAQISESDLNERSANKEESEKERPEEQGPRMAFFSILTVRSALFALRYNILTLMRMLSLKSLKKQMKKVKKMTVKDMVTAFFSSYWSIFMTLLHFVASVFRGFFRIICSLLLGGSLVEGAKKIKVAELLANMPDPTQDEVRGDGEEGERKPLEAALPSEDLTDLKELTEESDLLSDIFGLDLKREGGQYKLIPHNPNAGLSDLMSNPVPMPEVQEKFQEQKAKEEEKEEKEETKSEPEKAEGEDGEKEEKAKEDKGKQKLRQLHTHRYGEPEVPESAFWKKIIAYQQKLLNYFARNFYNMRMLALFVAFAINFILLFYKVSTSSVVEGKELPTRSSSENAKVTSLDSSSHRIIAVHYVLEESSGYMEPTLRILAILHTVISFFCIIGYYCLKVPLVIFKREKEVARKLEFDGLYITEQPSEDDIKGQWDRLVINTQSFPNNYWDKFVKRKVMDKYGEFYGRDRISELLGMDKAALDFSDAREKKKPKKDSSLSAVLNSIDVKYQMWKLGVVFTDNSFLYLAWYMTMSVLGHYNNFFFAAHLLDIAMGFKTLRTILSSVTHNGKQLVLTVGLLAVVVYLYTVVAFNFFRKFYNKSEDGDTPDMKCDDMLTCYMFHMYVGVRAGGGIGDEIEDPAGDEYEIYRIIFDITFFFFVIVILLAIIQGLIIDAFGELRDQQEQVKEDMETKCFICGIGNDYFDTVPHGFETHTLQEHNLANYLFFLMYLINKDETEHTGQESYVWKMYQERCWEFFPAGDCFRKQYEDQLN
T1 sequence (P68106 whole entry partner, the tested form may be a part): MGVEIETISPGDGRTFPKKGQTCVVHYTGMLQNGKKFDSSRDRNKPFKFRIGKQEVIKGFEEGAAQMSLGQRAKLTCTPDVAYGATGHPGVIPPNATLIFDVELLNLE
Kind of experiment: Cryo-EM analysis with normalized difference in RMSD (pairwise domain comparison). As to the method: Each of the final samples (3 μl each) prepared in EXAMPLE 5 was applied to UltrAuFoil holey gold grids (Quantifoil R 0.6/1.0, Au 300) previously cleaned with easiGlow (PELCO). Grids were blotted with ashless filter paper (Whatman) using blot force 10 and blot time 8 s before vitrification by plunge-freezing into liquid ethane chilled with liquid nitrogen using Vitrobot Mark IV (Thermo Fisher Scientific) operated at 4° C. with 100% relative humidity.
Prepared grids were screened in-house on a Glacios Cryo-TEM (Thermo Fisher Scientific) microscope with a 200-kV x-FEG source and a Falcon 3EC direct electron detector (Thermo Fisher Scientific). Microscope operations and data collection were carried out using EPU software (Thermo Fisher Scientific). High-resolution data collection was performed at Columbia University on a Titan Krios 300-kV (Thermo Fisher Scientific) microscope equipped with an energy filter (slit width 20 eV) and a K3 direct electron detector (Gatan). Data were collected using Leginon and at a nominal magnification of ×105,000 in electron counting mode, corresponding to a pixel size of 0.83 Å. The electron dose rate was set to 16 e^−/pixel per second with 2.5-s exposures for a total dose of 50 to 60 e/A2.
Cryo-EM data processing was performed in cryoSPARC with image stacks aligned using Patch motion, defocus value estimation by Patch CTF estimation. Particle picking was performed using the template picker with templates created from preexisting cryo-EM maps. Particles were subjected to 2D classification in cryoSPARC with 100 classes. Particles from the highest-resolution classes were pooled for ab initio 3D reconstruction with a single class followed by homogeneous refinement with C4 symmetry imposed. 3D variability and further clustering were performed using a mask comprising the TM domain to separate those particles in the closed and open states followed by heterogeneous refinement with four classes to further select the best particles. C4 symmetry expansion was performed before local refinements. The masks used were TaF+TM+CTD domains (residues 4131 to 4967), calstabin-2+NTD+SPRY domains (residues 1 to 1646), JSol+CSol domains (residues 1700 to 2476, 3590 to 4130), and BSol domain (residues 2400 to 3344). Only the TaF+TM+CTD mask used C4 symmetry. Smaller masks, for a second round of 3D variability analysis, clustering, and local refinement, were RY1&2 (residues 862 to 1076), RY3&4 (residues 2685 to 2909), and BSol2 (residues 3042 to 3344). Local refinements used a dynamical mask with a far distance of 10, 50, and 150 Å for the initial masks, small masks, and expanded RY3&4 mask for comparing the effect of RY3&4 stabilization, respectively. The resulting maps were combined in ChimeraX to generate a composite map before calibration of the pixel size using correlation coefficients with a map generated from the crystal structure of the NTD of RyR2 (PDB ID: 4JKQ). The pixel size was altered by 0.001 Å per step, up to 20 steps in each direction.
An initial model of RYR2 was generated with Phenix tool sculptor from a 2.45-Å structure of RyR1 (PDB ID: 7TZC). Truncated residues were manually corrected to obtain the full side chains. Only domains RY1&2 and RY3&4, which show weak cryo-EM density and confidence in structure, were based on crystallographic structures. The initial model of RyR2 RY1&2 domain was generated with Phenix tool sculptor from the RY1&2 domain of RyR3 with ATP (PDB ID: […]). The model of RyR2 RY3&4 domain was obtained as is (PDB ID: 4ETV). Calstabin-2 and CaM models were obtained as is (PDB ID: 6JI8). Model building was performed in Coot and refined with Phenix tool RealSpaceRefine.
This analysis determined the conformation of a certain query domain from a model X relative to reference closed and open states of RyR2. To this end, the RMSD of Ca of the query domain was measured between model X and the closed state (RMSDX-closed), and between model X and the open state (RMSDX-open). […]

A further experiment relates to Ryr2^R2474S/WT mice. In words: Telemetric electrocardiogram recordings during epinephrine arrhythmia provocation. It counts as in vivo. An excerpt:
Ryr2^R2474S/WT mice were implanted with radio telemetry transmitters (Data Sciences International). Briefly, the transmitter (PhysioTel, ETA-F10 transmitter) was inserted in mice subcutaneously along the back under general anesthesia (5% inhaled isoflurane). Two electrocardiogram (ECG) electrodes were placed hypodermically in the region of the right shoulder (negative pole) and toward the lower left chest (positive pole) to approximate lead II of the Einthoven surface ECG. During the procedure, respiratory and cardiac rhythm, adequacy of anesthetic depth, muscle relaxation, body temperature, and analgesia were monitored to avoid anesthesia-related complications. Postoperative pain was considered during a 1-week post-implantation period, and carprofen (5 mg/kg, subcutaneously) was given. A minimum period of 2 weeks was allowed for recovery from the surgery. Animals were housed in individual stainless-steel cages for telemetry recordings. Environmental parameters were recorded continuously and maintained within a fixed range: room temperature at 15° C. to 21° C. and 45 to 65% relative humidity. The artificial day/night cycle was 12-hour light/12-hour dark with light on at 0700 hours. Drinking water was provided ad libitum. Solid diet ([…]) was given daily in the morning. ECG waveforms were continuously recorded at a sampling rate of 2000 Hz using a signal transmitter-receiver (RPC-1) connected to a data acquisition system (Ponemah system, Data Sciences International). Compound 1 (50 mg/kg per day) was given in drinking water for 2 weeks before ECG recordings. Mice were recorded for 1 hour at baseline and then given epinephrine injection (1 mg/kg, intraperitoneally) and recorded for another 2 hours. The animals used in the study were maintained and studied according to protocols approved by the Institutional Animal Care and Use Committee of Columbia University (reference no. AC-AABP1551).

For a further experiment, the target named is T2, RyR2-R2474S channels (Mus musculus, UniProt E9Q401, R2473S).
T2 construct: Cardiac muscle SR microsomes were prepared by homogenizing heart samples on ice; from tissue; host or cells: heart of Ryr2 R2474S/WT mice (SR microsomes)
In words: SR Ca^2+ leak assay in heart microsomes (Fluo-4). It counts as biochemical. To be noted: heart microsomes from mice treated with epinephrine and Compound 1 in vivo. The protocol:
Ca^2+ leak was measured in microsomes from heart lysates isolated from control Ryr^2R2474S/WT mice, Ryr^2R2474S/WT mice treated with epinephrine, and Ryr^2R2474S/WT mice treated with epinephrine and Compound 1 in EXAMPLE 8. […] Cardiac muscle SR microsomes were prepared by homogenizing heart samples on ice using a Teflon glass homogenizer (50 times) with 2 volumes of 20 mM tris-maleate (pH 7.4), 1 mM EDTA, 1 mM DTT, and protease inhibitors (Roche). Homogenate was then spun by centrifuge at 4000 g for 15 min at 4° C., and the resultant supernatant was spun by centrifuge at 50,000 g for 45 min at 4° C. Pellets were resuspended in lysis buffer containing 300 mM sucrose. Microsomes ([…]) were diluted into a buffer (pH 7.2) containing 8 mM K-phosphocreatine, and creatine kinase (2 U/ml), mixed with 3 μM Fluo-4 and added to multiple wells of a 96-well plate. Ca^2+ loading of the microsomes was initiated by adding 1 mM ATP. After Ca^2+ uptake (50 s), 3 μM thapsigargin was added to inhibit the Ca^2+ reuptake by SERCA. SR Ca^2+ leak was measured by the increase in intensity of the Fluo-4 signal (measured in a Tecan fluorescence plate reader). Ca^2+ leak was quantified as the difference between the average Fluo-4 signal before and after addition of thapsigargin. Graphs were plotted with GraphPad Prism software.

In another experiment the target is T3, recombinant RyR2 (Homo sapiens, UniProt Q92736).
T3 construct: expressed in transfected cells; host or cells: HEK293
T3 sequence (Q92736 whole entry): as the sequence (Q92736 whole entry R2474S, the tested form may be a part) above, with S2474R counted along it
In words: Single channel recordings in planar lipid bilayers (open probability). To be noted: xanthine 10 μM; Ca2+ 150 nM. The experiment is classed as biochemical. The protocol:
To confirm the functional role of xanthine in RyR2, single-channel experiments were performed. ER vesicles from HEK293 cells expressing RyR2 were prepared by homogenizing cell pellets on ice using a Teflon glass homogenizer with two volumes of solution containing 20 mM tris-maleate (pH 7.4), 1 mM EDTA, 1 mM DTT, and protease inhibitors (Roche). Homogenate was then spun by centrifuge at 4000 g for 15 min at 4° C., and the resulting supernatant was spun by centrifuge at 40,000 g for 30 min at 4° C. The final pellet, containing the ER fractions, was resuspended and aliquoted in 250 mM sucrose, 10 mM Mops (pH 7.4), 1 mM EDTA, 1 mM DTT, and protease inhibitors. Samples were frozen in liquid nitrogen and stored at −80° C.
ER vesicles were fused to planar lipid bilayers formed by painting a lipid mixture of phosphatidylethanolamine and PC (Avanti Polar Lipids) in a 5:3 ratio in decane across a […] in polysulfonate cups (Warner Instruments) separating two chambers. […] The concentration of free Ca^2+ in the cis chamber was calculated as previously described. […] Single-channel currents were recorded at 0 mV using Bilayer Clamp BC-525D (Warner Instruments), filtered at 1 kHz using Low-Pass Bessel Filter 8 Pole (Warner Instruments), and digitized at 4 kHz. […] The recordings were analyzed using Clampfit 10.1 (Molecular Devices) and GraphPad Prism software.

[2] abbreviates: P-RyR2-R2474S + Cpd1 vs closed/open PKA RyR2, 0 = closed state, 1 = open state.
[3] abbreviates: 50 mg/kg per day in drinking water for 2 weeks, epinephrine 1 mg/kg i.p.

With `COc1ccc2c(c1)CN(Cc1ccc(C(=O)O)cc1)CCS2` [Compound 1], the “effect on the primed state of PKA-phosphorylated RyR2-R2474S (cryo-EM structure comparison)” value in experiment [1] (10 mM ATP, 150 nM free Ca2+, 500 μM xanthine) was “partially reversed the primed state”. Besides, in experiment [1] (setting [2]), the “Normalized difference in RMSD, BSol” value is 0.32; the “Normalized difference in RMSD, BSol2” value came to 0.40; the “Normalized difference in RMSD, NTD” value was 0.42; the “Normalized difference in RMSD, SPRY” value worked out at 0.41. For the same molecule, the “reduction toward the closed state in RMSD analysis compared to primed PKA-phosphorylated RyR2-R2474S” value in experiment [1] (in some domains) is given as “more than 50%”. Further, in experiment [1] (vs closed PKA RyR2), the “RMSD Cα BSol, P-RyR2-R2474S + Cpd1 (PDB:7UA1) vs P-RyR2-C (PDB:7U9Q)” value is given as 1.61 ± Å; the “RMSD Cα NTD, P-RyR2-R2474S + Cpd1 (PDB:7UA1) vs P-RyR2-C (PDB:7U9Q)” value was 1.20 ± Å; the “RMSD Cα SPRY, P-RyR2-R2474S + Cpd1 (PDB:7UA1) vs P-RyR2-C (PDB:7U9Q)” value is recorded as 0.88 ± Å. The “RMSD Cα BSol2, P-RyR2-R2474S + Cpd1 (PDB:7UA1) vs P-RyR2-C (PDB:7U9Q)” value in experiment [1] (vs closed PKA RyR2, 10 mM NaATP, 500 μM xanthine, 150 nM free Ca2+) is on record as 3.08 ± Å. The “RMSD Cα CSol, P-RyR2-R2474S + Cpd1 (PDB:7UA1) vs P-RyR2-C (PDB:7U9Q)” value in experiment [1] (vs closed PKA RyR2, aligned control domain, used as error) was 0.53 Å. For the same molecule, in experiment [1] (vs open PKA RyR2), the “RMSD Cα BSol2, P-RyR2-R2474S + Cpd1 (PDB:7UA1) vs P-RyR2-O (PDB:7U9R)” value was 4.63 ± Å; the “RMSD Cα BSol, P-RyR2-R2474S + Cpd1 (PDB:7UA1) vs P-RyR2-O (PDB:7U9R)” value is given as 3.36 ± Å; the “RMSD Cα NTD, P-RyR2-R2474S + Cpd1 (PDB:7UA1) vs P-RyR2-O (PDB:7U9R)” value is reported as 1.66 ± Å; the “RMSD Cα SPRY, P-RyR2-R2474S + Cpd1 (PDB:7UA1) vs P-RyR2-O (PDB:7U9R)” value was 1.25 ± Å. The “RMSD Cα CSol, P-RyR2-R2474S + Cpd1 (PDB:7UA1) vs P-RyR2-O (PDB:7U9R)” value in experiment [1] (vs open PKA RyR2, aligned control domain, used as error) is given as 0.41 Å. In addition, in the experiment with Ryr2^R2474S/WT mice (setting [3]), the “frequency of ventricular tachycardia” value was “reduced the frequency of ventricular tachycardia” and the “sudden cardiac death (SCD)” value is given as “prevented sudden cardiac death”. Besides, the “sustained ventricular tachycardia (sVT)” value in the experiment on Ryr2^R2474S/WT mice (50 mg/kg/day in drinking water, epinephrine 1 mg/kg) is listed as “prevented sVT”. Further, the “SR Ca^2+ leak (increase in Fluo-4 signal after thapsigargin)” value on RyR2-R2474S channels was “prevented SR Ca^2+ leak”.

For `O=c1[nH]c(=O)c2[nH]cnc2[nH]1` [xanthine], the “increase in the open probability of RyR2” value at recombinant RyR2 was roughly 25 fold.
